Key:
Type in all cases: cell-based
[1] = tested on: 92-1 uveal melanoma cells; test: alamarBlue proliferation assay, 92-1; details: 48 hours' incubation
Method: (§1) EBM-2 and IMDM growth media were purchased from Lonza (Walkersville, Md., USA). RPMI and DMEM media were purchased from Thermo Scientific (Waltham, Mass., USA). ARPE19 cells were obtained from ATCC (Manassas, Va., USA). HRECs and Attachment Factor were purchased from Cell Systems (Kirkland, Wash., USA) and were used between passages 5 and 8. Endothelial Growth Medium (EGM-2) was prepared by mixing the contents of an EGM-2 “Bullet Kit” (Cat. no. CC-4176) with Endothelial Basal Medium (EBM) (Lonza). The EGM-2 “Bullet Kit” contains hydrocortisone, human fibroblast growth factor (hFGF), VEGF, R3-insulin like growth factor (R3-IGF-1), ascorbic acid, human epidermal growth factor (hEGF), gentamycin and heparin along with 2% fetal bovine serum (FBS). ARPE19 cells were grown in DEM medium containing 10% FBS and 1% penicillin-streptomycin (pen-strep). 92-1 cells were grown in RPMI medium containing 10% FBS and 1% pen-strep. Y79 cells were grown in RB medium (IMDM+10% FBS+55 μM β-mercaptoethanol+10 μg/mL Insulin+1% pen-strep). […]
(§2) The proliferation of cells was monitored by an alamarBlue based fluorescence assay. […] At the end of the incubation, 11.1 μL of alamarBlue reagent was added and 4 hours after, fluorescence readings were taken with excitation and emission wavelengths of 560 nm and 590 nm respectively. Data were analyzed and dose response curves generated using GraphPad Prism software (v. 6.0).

[2] = tested on: ARPE19 retinal pigment epithelial cells; test: alamarBlue proliferation assay, ARPE19; details: Homo sapiens, ARPE-19, 48 hours' incubation
Method: as §1, §2

Y79 retinoblastoma cells = test: alamarBlue proliferation assay, Y79; details: 48 hours' incubation
Method: as §1, §2

[3] = tested on: human retinal endothelial cells (HRECs); test: alamarBlue proliferation assay, HRECs; details: HREC, 48 hours' incubation
Method: as §1, §2

GI50 [1]: 28 µM
GI50 (Y79 retinoblastoma cells): 17 µM
SMILES: COc1ccc(CC2COc3cc(OC)c(OC)c(OC)c3C2)cc1O (stereo not shown) [compound (1)]
GI50 [2]: > 100 µM
GI50 [3]: 1.52 nM

Reference: patent publication US20210379012A1, “ANTIANGIOGENIC CHROMANE DERIVATIVE AND USES THEREOF” (Indiana University Research and Technology Corporation, priority 2018, published 2021)
